Data published in ChEMBL document CHEMBL1201862, “PubChem BioAssay data set” (2004).
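96-well plates; 48 h exposure; 5 concentrations. Endpoints by linear interpolation between flanking doses. Not reached: highest tested concentration assigned. GI50 marks 50% less growth.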 The source made the active and inactive calls. Cut-off read from the data, not from the text of the source: active = GI50 up to about 1.1 µM and inactive = higher.

Columns and labels:
Assay in all cases: DTP human tumour cell line panel, 48 h
[1] = tested on: A498
[2] = tested on: A549
[3] = tested on: ACHN
[4] = tested on: COLO 205
[5] = tested on: HCT-116
[6] = tested on: HT-29
[7] = tested on: Hs-578T
[8] = tested on: IGROV-1
[9] = tested on: K562
[10] = tested on: M14
[11] = tested on: MDA-MB-435
[12] = tested on: MOLT-4
[13] = tested on: NCI-H226
[14] = tested on: SK-OV-3
[15] = tested on: SNB-19
[16] = tested on: SR
[17] = tested on: SW-620
[18] = tested on: U-251
[19] = tested on: UACC-62

Measured: GI50

CCOC(=O)c1cc(C2CCN(c3ccccc3)C2=O)c(C(=O)/C=C(/C)N)[nH]1 (stereo not given)
inactive: [1] 57 µM | [2] 25.6 µM | [3] 40.6 µM | [4] > 100 µM | [5] 12.7 µM | [6] 12.9 µM | [7] 14.9 µM | [8] 33.7 µM | [9] 68.2 µM | [10] 65 µM | [11] > 100 µM | [12] 39.6 µM | [13] 20.5 µM | [14] 16.6 µM | [15] 21.3 µM | [16] > 100 µM | [17] 45.8 µM | [18] 15 µM | [19] 16.2 µM

O=C1/C(=C/c2cccs2)NC(=S)N1CN1CCOCC1
inactive: [1] 42.9 µM | [2] > 100 µM | [3] > 100 µM | [4] > 100 µM | [5] > 100 µM | [6] > 100 µM | [7] > 100 µM | [8] > 100 µM | [9] > 100 µM | [10] > 100 µM | [11] > 100 µM | [12] > 100 µM | [13] > 100 µM | [14] > 100 µM | [15] > 100 µM | [16] > 100 µM | [17] > 100 µM | [18] > 100 µM | [19] > 100 µM

Cc1cc2c(c(/C=N/c3ccccc3O)c1)OC1(C=C2)Oc2ccccc2C(=O)N1C (stereo not given)
inactive: [1] 18.6 µM | [2] 21.7 µM | [3] 14.2 µM | [4] 22.9 µM | [5] 14.3 µM | [6] 16.6 µM | [7] 11.6 µM | [8] 21.5 µM | [9] 12.3 µM | [10] 15.5 µM | [11] 22.6 µM | [12] 13.5 µM | [13] 15.4 µM | [14] 24.4 µM | [15] 24.7 µM | [16] 15.8 µM | [17] 22.3 µM | [18] 18.2 µM | [19] 17.8 µM

O=CC1OC(=O)c2cc(O)c(O)c(O)c2-c2c(cc(O)c(O)c2O)C(=O)OC1C1OC(=O)c2cc(O)c(O)c(O)c2-c2c(O)c(O)c3oc(=O)c4c(c(O)c(O)c5oc(=O)c2c3c54)-c2c(cc(O)c(O)c2O)C(=O)OCC1O (stereo not given)
inactive: [1] 5.94 µM | [2] 24.9 µM | [3] 35.2 µM | [4] 26 µM | [5] 16.9 µM | [6] 13.4 µM | [7] 44.7 µM | [8] 39.4 µM | [9] 26.7 µM | [10] 24.5 µM | [11] 22.3 µM | [12] 26.1 µM | [13] 32.4 µM | [14] 50.6 µM | [15] 72.3 µM | [16] 39.7 µM | [17] 19.3 µM | [18] 17.9 µM | [19] 29.4 µM

CC(C)CC1c2[nH]c3ccccc3c2C[C@H]2C(=O)NC(COC(C)(C)C)C(=O)N12 (stereo not given in full)
inactive: [1] 30.3 µM | [2] 31.9 µM | [3] 26.8 µM | [4] 20.4 µM | [5] 18.6 µM | [6] 20.9 µM | [7] 13.3 µM | [8] 23.3 µM | [9] 31.7 µM | [10] 20.8 µM | [11] 20.5 µM | [12] 22.2 µM | [13] 33.2 µM | [14] > 100 µM | [15] 33.9 µM | [16] 16.4 µM | [17] 31 µM | [18] 20.4 µM | [19] 18.2 µM
